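Cells were grown in 96-well plates and exposed to each compound for 48 hours at five concentrations; endpoints were interpolated linearly between bracketing concentrations, or set to the highest concentration if not reached. GI50 marks 50% less growth. TGI is the concentration that stops growth completely.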

Some test systems named below: CCRF-CEM leukemia; HCT-15 colon; HL-60(TB) leukemia; M14 melanoma; OVCAR-4 ovarian; OVCAR-5 ovarian; SK-MEL-2 melanoma; SK-MEL-5 melanoma; SW-620 colon; UACC-257 melanoma.
What all share (experiment): NCI-60 cell line screen, 48 h

For the compound `Cc1cc(N(CCOS(C)(=O)=O)CCOS(C)(=O)=O)ccc1C=Nc1ccc(-c2csc(-c3ccccc3)n2)c(Cl)c1`, the TGI turned out to be 23.3 µM in the assay with CCRF-CEM leukemia; 36.1 µM with HCT-15 colon; 19.8 µM in the assay with HL-60(TB) leukemia; 43.1 µM in the assay with M14 melanoma; 51.3 µM in the assay on OVCAR-4 ovarian; 55 µM in the assay on OVCAR-5 ovarian. The TGI with SK-MEL-2 melanoma is 50.5 µM; in the assay on SK-MEL-5 melanoma it was 16.2 µM; in the assay on SW-620 colon it was greater than 64.7 µM; in the assay with UACC-257 melanoma, 49.3 µM.
Turning to `CN1CCN(C(=O)c2ccc(NC(=O)Nc3ccc(N(C)c4ccnc(Nc5ccc(CS(C)(=O)=O)cc5)n4)cc3)cc2)CC1`, the GI50 is 7.07 µM with CCRF-CEM leukemia; greater than 25 µM in the assay on HCT-15 colon; greater than 19.4 µM with HL-60(TB) leukemia; greater than 23.2 µM in the assay on M14 melanoma; 8.15 µM in the assay on OVCAR-4 ovarian; greater than 25 µM with OVCAR-5 ovarian. Moreover, the GI50 in the assay on SK-MEL-2 melanoma was greater than 12.7 µM; in the assay with SK-MEL-5 melanoma it was 12.4 µM; in the assay with SW-620 colon it was 11 µM; in the assay on UACC-257 melanoma, greater than 25 µM. The TGI in the assay with CCRF-CEM leukemia, with HCT-15 colon, in the assay on HL-60(TB) leukemia, with M14 melanoma, in the assay on OVCAR-4 ovarian and with OVCAR-5 ovarian was greater than 25 µM in each case. The TGI in the assay with SK-MEL-2 melanoma, in the assay with SK-MEL-5 melanoma, in the assay with SW-620 colon and with UACC-257 melanoma was greater than 25 µM in each case.
`Nn1c(CCCl)nc2c(Br)cc(Br)cc2c1=O`: the TGI with CCRF-CEM leukemia was 20.3 µM; in the assay with HCT-15 colon, 55.1 µM; in the assay on HL-60(TB) leukemia, 6.5 µM; in the assay on M14 melanoma, greater than 70 µM; with OVCAR-4 ovarian, 69.3 µM; with OVCAR-5 ovarian, greater than 71.5 µM. Besides, the TGI in the assay with SK-MEL-2 melanoma is greater than 90.9 µM; with SK-MEL-5 melanoma, 37.8 µM; in the assay with SW-620 colon, greater than 55 µM; in the assay on UACC-257 melanoma, greater than 100 µM.
With `Nc1ccccc1NC(=O)c1ccc(CSc2nc(N3CCOCC3)c3cccn3n2)cc1`, the GI50 in the assay with CCRF-CEM leukemia is 0.246 µM; with HCT-15 colon it was 0.588 µM; in the assay on HL-60(TB) leukemia, 0.273 µM; with M14 melanoma it was 0.756 µM; in the assay on OVCAR-4 ovarian, 2.47 µM; with OVCAR-5 ovarian it was 0.985 µM. In addition, the GI50 in the assay on SK-MEL-2 melanoma is 0.314 µM; with SK-MEL-5 melanoma, 0.415 µM; with SW-620 colon it was 0.44 µM; in the assay with UACC-257 melanoma, 0.549 µM. The TGI in the assay with CCRF-CEM leukemia is greater than 100 µM; with HCT-15 colon, greater than 100 µM; with HL-60(TB) leukemia, 0.961 µM; with M14 melanoma it was greater than 100 µM; in the assay with OVCAR-4 ovarian it was greater than 100 µM; in the assay on OVCAR-5 ovarian, greater than 100 µM. The TGI is 1.88 µM with SK-MEL-2 melanoma, 1.61 µM in the assay with SK-MEL-5 melanoma, greater than 100 µM with SW-620 colon and 4.54 µM with UACC-257 melanoma.
As for `COc1ccc(NC(=O)C(=O)C(CC2C(=O)NC(=S)NC2=O)C(=O)c2ccc3ccccc3c2)c([N+](=O)[O-])c1` (stereo not given), the TGI in the assay on CCRF-CEM leukemia, with HCT-15 colon, in the assay on HL-60(TB) leukemia, with M14 melanoma, in the assay with OVCAR-4 ovarian and in the assay with OVCAR-5 ovarian was greater than 100 µM each time. Further, the TGI in the assay with SK-MEL-2 melanoma, in the assay with SK-MEL-5 melanoma, with SW-620 colon and with UACC-257 melanoma was greater than 100 µM in each case.
On to `O=S(=O)(NCCNc1cc(-c2cn(-c3ccccc3)nc2-c2cccc(O)c2)ccn1)c1ccc(C(F)(F)F)cc1`, for which the GI50 in the assay with CCRF-CEM leukemia was 3.27 µM; in the assay on HCT-15 colon, 2.34 µM; in the assay on HL-60(TB) leukemia it was 2.17 µM; with M14 melanoma, 2.12 µM; with OVCAR-4 ovarian, 2.85 µM; with OVCAR-5 ovarian, 2.53 µM. Moreover, the GI50 in the assay on SK-MEL-2 melanoma is 2.36 µM; in the assay with SK-MEL-5 melanoma, 1.78 µM; in the assay on SW-620 colon, 3.55 µM; in the assay on UACC-257 melanoma it was 4.79 µM. For the same compound, the TGI was determined as 8.05 µM in the assay on CCRF-CEM leukemia; 11 µM in the assay on HCT-15 colon; 4.77 µM with HL-60(TB) leukemia; 7.17 µM with M14 melanoma; 16.9 µM in the assay on OVCAR-4 ovarian; 13.7 µM in the assay with OVCAR-5 ovarian. The TGI in the assay on SK-MEL-2 melanoma was 7.22 µM; with SK-MEL-5 melanoma it was 3.36 µM; in the assay with SW-620 colon, 12.9 µM; in the assay with UACC-257 melanoma it was 18.4 µM.
In the case of `CC1=CC2=C(OCO1)C(=O)c1ccccc1C2=O`, the TGI in the assay on CCRF-CEM leukemia turned out to be 45.7 µM; in the assay on HCT-15 colon it was 51.6 µM; in the assay with HL-60(TB) leukemia it was 23.1 µM; with M14 melanoma, 8.97 µM; with OVCAR-4 ovarian it was 8.5 µM; in the assay with OVCAR-5 ovarian, 10.8 µM. Also, the TGI in the assay on SK-MEL-2 melanoma was found to be 2.23 µM; with SK-MEL-5 melanoma, 5.27 µM; in the assay on SW-620 colon it was 21.6 µM; in the assay on UACC-257 melanoma it was 7.29 µM.
Consider `COC(=O)C1=CC(O)CCC1c1ccc(OC)cc1` (stereo not given), for which the TGI in the assay on CCRF-CEM leukemia, in the assay on HCT-15 colon, with HL-60(TB) leukemia, with M14 melanoma, in the assay on OVCAR-4 ovarian and in the assay with OVCAR-5 ovarian was greater than 100 µM throughout. For the same compound, the TGI in the assay on SK-MEL-2 melanoma, in the assay with SK-MEL-5 melanoma, with SW-620 colon and with UACC-257 melanoma was greater than 100 µM each time.
In the case of `C=C(C)C1CC=C(C(=O)O)CC1` (stereo not given), the TGI in the assay on CCRF-CEM leukemia was 2770 µM; in the assay with HCT-15 colon it was 1670 µM; with HL-60(TB) leukemia, 2630 µM; with M14 melanoma, greater than 5000 µM; in the assay on OVCAR-4 ovarian it was greater than 5000 µM; in the assay on OVCAR-5 ovarian, greater than 5000 µM. Also, the TGI in the assay with SK-MEL-2 melanoma is 3220 µM; in the assay with SK-MEL-5 melanoma, 1450 µM; with SW-620 colon, greater than 5000 µM; in the assay on UACC-257 melanoma, 3450 µM.
As to `CC[C@H](C)c1occ2c(O)c(C(=O)O)c(=O)cc-2c1C`, the TGI in the assay with CCRF-CEM leukemia is 53.5 µM; with HCT-15 colon it was 32.1 µM; in the assay with HL-60(TB) leukemia, 41.7 µM; with M14 melanoma it was greater than 100 µM; in the assay on OVCAR-4 ovarian, 68.2 µM; in the assay with OVCAR-5 ovarian, 36.7 µM. The TGI with SK-MEL-2 melanoma is 34 µM; in the assay with SK-MEL-5 melanoma it was 38.1 µM; with SW-620 colon it was 44.5 µM; in the assay with UACC-257 melanoma it was greater than 100 µM.

(Values after PubChem BioAssay (NCI).)
